Source: patent EP0933350A1, “Tricyclic retinoids, methods for their production and use” (LIGAND PHARMACEUTICALS INCORPORATED, priority 1994, dated 1996)

How the values were obtained:
[1] = molecular target: T1, RARα (Homo sapiens, UniProt P10276); assay: co-transfection assay (RAR/RXR agonist activity, luciferase reporter in CV-1 cells); format: cell-based; conditions: read-out: RARα Pot
T1 sequence (P10276 1-462): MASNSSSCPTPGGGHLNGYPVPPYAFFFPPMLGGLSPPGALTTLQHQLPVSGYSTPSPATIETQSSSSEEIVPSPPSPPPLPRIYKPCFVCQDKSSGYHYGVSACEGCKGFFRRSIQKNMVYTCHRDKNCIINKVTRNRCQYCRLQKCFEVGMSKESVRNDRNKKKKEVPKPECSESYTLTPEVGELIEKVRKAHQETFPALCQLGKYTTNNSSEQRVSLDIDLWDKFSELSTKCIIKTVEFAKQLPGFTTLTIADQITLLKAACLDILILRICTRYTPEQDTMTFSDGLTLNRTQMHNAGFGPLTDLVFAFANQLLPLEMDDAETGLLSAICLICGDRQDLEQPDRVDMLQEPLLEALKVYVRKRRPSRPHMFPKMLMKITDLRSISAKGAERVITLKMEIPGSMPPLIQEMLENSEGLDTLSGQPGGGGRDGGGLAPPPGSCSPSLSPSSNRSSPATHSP

[2] = molecular target: T2, RARβ (Homo sapiens, UniProt P10826); assay: as above; format: cell-based; conditions: potency = EC50, agonist, 40 hours, read-out: RARβ Pot
T2 sequence (P10826 1-448 isoform P10826-2): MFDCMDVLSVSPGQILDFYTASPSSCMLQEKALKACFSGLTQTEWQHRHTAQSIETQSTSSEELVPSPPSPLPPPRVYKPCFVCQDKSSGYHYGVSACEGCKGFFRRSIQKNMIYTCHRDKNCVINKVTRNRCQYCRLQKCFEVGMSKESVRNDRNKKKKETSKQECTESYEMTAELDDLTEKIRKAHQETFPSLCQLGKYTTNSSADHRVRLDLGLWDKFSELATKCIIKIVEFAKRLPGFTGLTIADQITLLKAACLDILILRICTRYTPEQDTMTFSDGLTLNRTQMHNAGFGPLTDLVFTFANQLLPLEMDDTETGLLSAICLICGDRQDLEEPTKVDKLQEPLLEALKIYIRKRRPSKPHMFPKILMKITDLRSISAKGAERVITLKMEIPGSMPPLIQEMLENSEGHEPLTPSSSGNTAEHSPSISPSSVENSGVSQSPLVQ

[3] = molecular target: T3, RARγ (Homo sapiens, UniProt P13631); assay: as above; format: cell-based; conditions: potency = EC50, agonist, 40 hours, read-out: RARγ Pot
T3 sequence (P13631 1-454): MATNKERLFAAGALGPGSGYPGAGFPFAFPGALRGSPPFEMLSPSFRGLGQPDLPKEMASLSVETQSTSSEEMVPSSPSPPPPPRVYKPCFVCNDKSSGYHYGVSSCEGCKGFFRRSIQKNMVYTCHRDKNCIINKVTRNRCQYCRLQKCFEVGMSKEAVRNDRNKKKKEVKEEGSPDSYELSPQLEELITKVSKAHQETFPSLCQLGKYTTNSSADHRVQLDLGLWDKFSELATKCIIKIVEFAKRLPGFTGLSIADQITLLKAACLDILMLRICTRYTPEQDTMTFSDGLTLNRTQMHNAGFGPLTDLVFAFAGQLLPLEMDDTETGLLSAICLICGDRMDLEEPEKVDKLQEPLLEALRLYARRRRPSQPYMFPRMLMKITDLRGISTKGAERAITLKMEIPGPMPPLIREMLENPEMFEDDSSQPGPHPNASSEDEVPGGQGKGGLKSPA

[4] = molecular target: T4, RXRγ (Mus musculus, UniProt P28705); assay: as above; format: cell-based; conditions: read-out: RXRγ Pot
T4 sequence (P28705 1-463): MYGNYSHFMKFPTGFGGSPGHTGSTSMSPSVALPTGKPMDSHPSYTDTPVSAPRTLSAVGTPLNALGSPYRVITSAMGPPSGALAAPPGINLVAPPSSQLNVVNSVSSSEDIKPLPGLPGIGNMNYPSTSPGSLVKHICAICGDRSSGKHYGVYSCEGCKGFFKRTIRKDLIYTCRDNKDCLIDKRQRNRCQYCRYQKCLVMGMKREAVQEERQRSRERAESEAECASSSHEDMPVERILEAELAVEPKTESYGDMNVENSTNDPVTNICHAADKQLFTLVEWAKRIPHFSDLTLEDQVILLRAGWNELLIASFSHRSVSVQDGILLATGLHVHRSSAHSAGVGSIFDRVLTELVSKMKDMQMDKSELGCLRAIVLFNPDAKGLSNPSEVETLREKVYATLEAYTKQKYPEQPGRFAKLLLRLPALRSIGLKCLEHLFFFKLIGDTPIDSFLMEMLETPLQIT

[5] = molecular target: T3, RARγ; assay: competitive binding of tritiated retinoids to retinoid receptors; conditions: competition with tritiated retinoid, Cheng-Prussof equation
[6] = molecular target: T5, RXRβ (Mus musculus, UniProt P28704); assay: as above; conditions: competition with tritiated retinoid, Cheng-Prussof equation
T5 sequence (P28704 1-520): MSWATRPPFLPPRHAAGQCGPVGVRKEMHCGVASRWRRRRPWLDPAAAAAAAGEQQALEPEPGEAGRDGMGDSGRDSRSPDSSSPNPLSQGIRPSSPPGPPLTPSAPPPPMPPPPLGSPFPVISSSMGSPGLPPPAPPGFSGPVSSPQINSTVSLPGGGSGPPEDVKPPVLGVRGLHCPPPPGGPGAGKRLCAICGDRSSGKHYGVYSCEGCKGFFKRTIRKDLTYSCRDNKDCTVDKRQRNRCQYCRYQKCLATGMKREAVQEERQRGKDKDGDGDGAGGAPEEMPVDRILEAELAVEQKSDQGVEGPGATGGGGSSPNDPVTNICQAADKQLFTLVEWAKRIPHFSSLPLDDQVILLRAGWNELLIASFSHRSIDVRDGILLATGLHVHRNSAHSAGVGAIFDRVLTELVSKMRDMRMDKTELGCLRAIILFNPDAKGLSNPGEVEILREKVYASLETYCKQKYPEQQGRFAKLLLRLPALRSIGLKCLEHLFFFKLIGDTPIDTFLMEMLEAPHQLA

[7] = test system: TPA induction of ODC; assay: ornithine decarboxylase (ODC) assay: inhibition of TPA induction of ODC; format: cell-based; conditions: concentration required to inhibit the TPA induction of ODC by 80 percent
[8] = test system: RPMI 8226 cell line; assay: incorporation of 3H-thymidine (antiproliferative); format: cell-based; conditions: Homo sapiens, 96 hours, radiolabeled thymidine incorporation, read-out: TdR IC50
[9] = test system: RPMI 8226 cell line; assay: viability (tetrazolium dye, mitochondrial function); format: cell-based; conditions: Homo sapiens, 96 hours, read-out: MTS IC50
[10] = test system: ME 180 cell line; assay: incorporation of 3H-thymidine (antiproliferative); format: cell-based; conditions: Homo sapiens, 96 hours, radiolabeled thymidine incorporation, read-out: TdR IC50
[11] = test system: AML-193 cell line; assay: viability (tetrazolium dye, mitochondrial function); format: cell-based; conditions: Homo sapiens, 96 hours, read-out: MTS IC50

| EC50 [1] [nM] | EC50 [2] [nM] | EC50 [3] [nM] | EC50 [4] [nM] | Kd [5] [nM] | Kd [6] [nM] | SMILES | IC80 [7] [nM] | IC50 [8] [nM] | IC50 [9] [nM] | IC50 [10] [nM] | IC50 [11] [nM] |
| --- | --- | --- | --- | --- | --- | --- | --- | --- | --- | --- | --- |
| 32 | 8 | 7 | 41 | 541 | 30 | CC(/C=C/C=C1/CCCc2cc3c(cc21)C(C)(C)CCC3(C)C)=C\C(=O)O [Compound 101b, (2E,4E)-3-Methyl-6-[(Z)-3,4,5,6,7,8-hexahydro-5,5,8,8-tetramethyl-2H-anthracen-1-ylidene]hexa-2,4-dienoic acid] | 0.78 | 6 | 100 | 8 | 1000 |
| 28 | 3 | 1 | 2270 | 279 | 332 | CC(/C=C/C=C1\CCCc2cc3c(cc21)C(C)(C)CCC3(C)C)=C\C(=O)O [Compound 109b, (2E,4E)-3-Methyl-6-[(E)-3,4,5,6,7,8-hexahydro-5,5,8,8-tetramethyl-2H-anthracen-1-ylidene]hexa-2,4-dienoic acid] | 0.08 | 0.05 | 10 | 5 | 1000 |
| 20 | 1 | 1 | 742 | 87 | 372 | CC(/C=C/C=C1\CCOc2cc3c(cc21)C(C)(C)CCC3(C)C)=C\C(=O)O [Compound 119b, (2E,4E)-3-Methyl-6-[(E)-2,3,6,7,8,9-hexahydro-6,6,9,9-tetramethylbenzo[g]chromen-4-ylidene]hexa-2,4-dienoic acid] |  | 0.5 | 2.6 | 0.6 | 1000 |
| > 10000 | > 10000 | > 10000 | 301 | > 1000 | 276 | CC(/C=C/CN1CCCCc2cc3c(cc21)C(C)(C)CCC3(C)C)=C\C(=O)O [Compound 138b, (2E,4E)-3-Methyl-6-[7,7,10,10-tetramethyl-2,3,4,5,7,8,9,10-octahydronaphtho[2,3-6]azepinyl)hexa-2,4-dienoic acid] |  |  |  |  |  |
| 14 | 3 | 2 | 40 | 494 | 146 | CC(/C=C/C=C1/CCOc2cc3c(cc21)C(C)(C)CCC3(C)C)=C\C(=O)O [Compound 144b] | 0.6 | 0.6 | 7.5 | 4 | 1000 |
